The results in this text go back to ChEMBL document CHEMBL1671732, “No evidence for induction of ABC transporters in peripheral blood mononuclear cells in humans after 14 days of efavirenz treatment” (Antimicrob Agents Chemother, 2010).

Each structure is given as a SMILES string.

The nature of data set [1]: Tmax in healthy human plasma at 400 mg, po qd for 14 days by liquid chromatography-tandem mass spectrometry. Type of data set: ADME, organism-based.
The test system of data set [2] is Homo sapiens. Kind of data set: Effect on P-gp activity in PBMCs isolated from healthy human receiving compound dose at 400 mg, po qd for 14 days by rhodamine -123 efflux assay. Type of data set: ADME, organism-based. Conditions: in vivo, 336 h.
Data set [3] concerns Plasma. Kind of data set: Fraction unbound in healthy human plasma at 400 mg, po measured on day 1 post dose by liquid chromatography-tandem mass spectrometry. Type of data set: ADME, organism-based. To be noted: in vivo.
The subject of data set [4] is Plasma. Kind of data set: Fraction unbound in healthy human plasma at 400 mg, po qd for 14 days by liquid chromatography-tandem mass spectrometry. Type of data set: ADME, organism-based. To be noted: in vivo, 336 h.
A short description of data set [5]: Ratio of drug concentration in PBMCs to plasma of healthy human administered at 400 mg, po qd for 14 days measured after 5 hrs post last dose. Type of data set: ADME, organism-based, PBMC.
The nature of data set [6]: Tmax in healthy human plasma at 400 mg, po measured on day 1 post dose by liquid chromatography-tandem mass spectrometry. Type of data set: ADME, organism-based.
Data set [7] is described as follows: Drug concentration in PBMCs of healthy human at 400 mg, po ad for 14 days measured after 24 hrs post last dose by liquid chromatography-tandem mass spectrometry. Type of data set: ADME, organism-based, PBMC. To be noted: read-out: Drug uptake.
In data set [8] the test system is Homo sapiens. The data set is described as follows: Volume of distribution in healthy human plasma at 400 mg, po measured on day 1 post dose by liquid chromatography-tandem mass spectrometry. Type of data set: ADME, organism-based. Conditions: in vivo.
Data set [9] can be described thus: Apparent oral clearance in healthy human plasma at 400 mg, po qd for 14 days by liquid chromatography-tandem mass spectrometry. Type of data set: ADME, organism-based.
Data set [10] is described as follows: Cmax in healthy human plasma at 400 mg, po measured on day 1 post dose by liquid chromatography-tandem mass spectrometry. Type of data set: ADME, organism-based. Further details: dose 400 mg, route oral.
Data set [11] concerns Homo sapiens. The data set is described as follows: Reduction in ABCB1 mRNA expression in healthy human at 400 mg, po qd for 14 days by RT-PCR. Type of data set: ADME, organism-based. Conditions: in vivo, 336 h.
Data set [12] concerns Homo sapiens. Kind of data set: Reduction in ABCC2 mRNA expression in healthy human at 400 mg, po qd for 14 days by RT-PCR. Type of data set: ADME, organism-based. To be noted: in vivo, 336 h.
A short description of data set [13]: Cmax in healthy human plasma at 400 mg, po qd for 14 days by liquid chromatography-tandem mass spectrometry. Type of data set: ADME, organism-based. Further details: dose 400 mg, route oral.
The nature of data set [14]: Drug concentration in PBMCs of healthy human at 400 mg, po measured after 24 hrs on day 1 post dose by liquid chromatography-tandem mass spectrometry. Type of data set: ADME, organism-based, PBMC. To be noted: read-out: Drug uptake.
Data set [15] can be described thus: Ratio of drug concentration in PBMCs to plasma of healthy human administered at 400 mg, po measured after 24 hrs on day 1 post dose. Type of data set: ADME, organism-based, PBMC.
Data set [16] is described as follows: Half life in healthy human plasma at 400 mg, po measured on day 1 post dose by liquid chromatography-tandem mass spectrometry. Type of data set: ADME, organism-based.
In data set [17] the test system is Homo sapiens. The data set is described as follows: Volume of distribution in healthy human plasma at 400 mg, po qd for 14 days by liquid chromatography-tandem mass spectrometry. Conditions: in vivo, 336 h. Type of data set: ADME, organism-based.
Data set [18] in a line: Ratio of drug concentration in PBMCs to plasma of healthy human administered at 400 mg, po measured after 5 hrs on day 1 post dose. Type of data set: ADME, organism-based, PBMC.
Data set [19] can be described thus: Drug concentration in PBMCs of healthy human at 400 mg, po measured after 5 hrs on day 1 post dose by liquid chromatography-tandem mass spectrometry. Type of data set: ADME, organism-based, PBMC. To be noted: read-out: Drug uptake.
A short description of data set [20]: Ratio of drug concentration in PBMCs to plasma of healthy human administered at 400 mg, po qd for 14 days measured after 24 hrs post last dose. Type of data set: ADME, organism-based, PBMC.
Data set [21] concerns Homo sapiens. Kind of data set: Reduction in ABCC1 mRNA expression in healthy human at 400 mg, po qd for 14 days by RT-PCR. Type of data set: ADME, organism-based. To be noted: in vivo, 336 h.
Data set [22] can be described thus: Apparent oral clearance in healthy human plasma at 400 mg, po measured on day 1 post dose by liquid chromatography-tandem mass spectrometry. Type of data set: ADME, organism-based.
Data set [23] is described as follows: Drug concentration in PBMCs of healthy human at 400 mg, po ad for 14 days measured after 5 hrs post last dose by liquid chromatography-tandem mass spectrometry. Conditions: read-out: Drug uptake. Type of data set: ADME, organism-based, PBMC.
The nature of data set [24]: Half life in healthy human plasma at 400 mg, po qd for 14 days by liquid chromatography-tandem mass spectrometry. Type of data set: ADME, organism-based.

Broadly, the Tmax is the time from dosing to the highest level. By Kp is commonly meant the ratio of the level in a tissue or fluid to that in plasma or blood. Broadly, the CL/F is clearance divided by bioavailability, as obtained after extravascular dosing. Usually Cmax stands for the maximum level reached in the sampled fluid or tissue. What is called half-life is the time needed for the level to fall by half in the phase considered. Lower therefore signals rapid decline. For the compound `O=C1Nc2ccc(Cl)cc2[C@@](C#CC2CC2)(C(F)(F)F)O1` [EFAVIRENZ], the Tmax in data set [1] came out at 2.2 h; in data set [6], 2.3 h. The Activity result in the data set with Homo sapiens [2], with Homo sapiens [11], in the data set on Homo sapiens [12] and in the data set on Homo sapiens [21] was “Non-toxic” each time. Besides, the figures for the Fu in the data set on Plasma [3] and in the data set on Plasma [4] were 0.47% and 0.52%, respectively. The concentration ratio (Kp) at 5 h in [5] was determined as 1.76; in data set [18], 1.63. The concentration at 24 h was determined as 2030 ng/mL in data set [7] and 974 ng/mL in [14]. Also, the values for the Vd in the data set with Homo sapiens [8] and in the data set with Homo sapiens [17] were 462.8 L and 401.6 L, respectively. Also, the apparent clearance (CL/F) in data set [9] is 148 mL/min; in data set [22], 70.7 mL/min. In addition, the Cmax came to 2740 ng/mL in data set [10] and 3760 ng/mL in data set [13]. Besides, the Kp at 24 h was 1.53 in [15] and 1.36 in data set [20]. In addition, the half-life in [16] was 78.7 h; in [24], 33 h. In addition, the concentration at 5 h in data set [19] was 1470 ng/mL; in [23] it was 3600 ng/mL.
